The subject of assay [1] is HCC-38 triple negative breast cancer cells. In words: SRB cell viability, HCC-38 cells infected with AR adenovirus. It is filed as cell-based. Conditions: 3 days. As to the method: The SRB assay was used to determine cell number during cytotoxocity experiments. The following protocol was used: • 1. Cells were detached with 0.25% trypsin. • 2. Experimental cultures were cultured in 96-well microtiter plates (200 μL growth medium per well; 1,000-200,000 cells per well). • 3. Cultures were fixed with 50 μL 50% TCA (4° C.). (see cell fixation protocol for details). • 4. Fixed cells were stained with 50 μL 0.4% (wt/vol) SRB in 1% acetic acid for 10 minutes. • 5. SRB was removed and the cultures were quickly* rinsed 5 times with 1% acetic acid to remove unbound dye.** • 6. Cultures were air-dried overnight until there was no visible moisture. • 7. The cellular protein-bound SRB was dissolved with 200 μL unbuffered Tris base (10 mM, pH 10.5) for 30 minutes on a rocking platform shaker. • 8. Absorbance was read at 540 nm. * quickly performing rinsing process was to prevent desorption of protein-bound SRB ** completely removed residual wash solution by sharply flicking plates over sink.
The following protocol was used for fixing cells: • a. 50 μL of 50% TCA (4° C.) was gently layered on the top of growth medium in each well to make a final TCA concentration of 10%. • b. Cultures were incubated at 4° C. for 1 hour. • c. Cultures were washed 5 times with tap water to remove TCA, growth medium, low-molecular-weight metabolites, and serum protein. • d. […]

The test system of another assay is HCI-9 PDX. The assay can be described thus: HCI-9 patient-derived xenograft in NSG mice. In kind it is in vivo. Conditions: Formula IX 10 mpk, enzalutamide 30 mpk p.o. As to the method: All animal protocols were approved by The University of Tennessee Health Science Center (UTHSC) Institutional Animal Care and Use Research Committee. Xenograft experiments were performed as previously published (Narayanan et al. (2014) PLoS One 9, e103202). Briefly, 3 million MCF-7 cells were suspended in 0.05 ml MEM+10% FBS and 0.05 ml Matrigel/nude mouse and were injected subcutaneously. Once the tumor size reached 100-200 mm^3, the animals were randomized and treated orally with the indicated drugs formulated in DMSO:PEG-300 (15:85). HCI-7, HCI-9, and HCI-13 PDXs were gifts kindly donated by Dr. Alana Welm (Huntsman Cancer Institute, Salt Lake City, Utah). HCI PDX tumor fragments (1 mm^3) were surgically implanted under the mammary fat pad in female NOD SCID Gamma (NSG) mice. Tumor volume was measured twice weekly for MCF-7 xenograft and once or twice weekly for HCI PDXs. At the end of the study, animals were sacrificed and tumors were excised, weighed, and stored for various analyses.
To determine if the same effect is observed in an AR-positive, but ER-negative breast cancer, HCI-9 tumor fragments were implanted under the mammary fat pad of NSG mice.
A general note: Xenograft models place foreign cells or tissue in a host animal.

This passage reports cell growth and tumor growth trajectory results from patent US20220257552A1, “METHODS OF PRESCREENING AND TREATING BREAST CANCERS WITH SELECTIVE ANDROGEN RECEPTOR MODULATORS” (priority 2021, published 2022).

With `C[C@](O)(COc1ccc(C#N)cc1)C(=O)Nc1ccc(C#N)c(C(F)(F)F)c1` [Formula IX, (S)—N-(4-Cyano-3-(trifluoromethyl)phenyl)-3-(4-cyanophenoxy)-2-hydroxy-2-methylpropanamide], in assay [1], the cell growth result is recorded as “inhibited”. In the assay on HCI-9 PDX, the tumor growth trajectory entry is “Neither Formula IX nor enzalutamide altered the growth trajectory”.
